Our source for the EC50 values is patent publication US12037340B2, “Pentacyclic derivatives as Zika virus inhibitors” (Gilead Sciences, Inc., priority 2021, dated 2024).

What is called EC50 is the concentration giving half of the maximal effect.

In the first assay the test system is ZIKV. As to the kind of experiment: microbe, parasite or virus in culture. The settings on record: 48 hrs. It counts as cell-based, Zika virus.
Consider `COC(=O)N[C@H](C(=O)N1[C@@H](C)CC[C@H]1c1nc(C2CC2)c(-c2ccc3c(c2)COc2cc4c(ccc5nc([C@@H]6CC[C@H](C)N6C(=O)[C@@H](NC(=O)OC)C(C)(C)C(F)(F)F)[nH]c54)cc2-3)[nH]1)C(C)(C)C(F)(F)F` [Compound 41, methyl ((S)-1-((2S,5S)-2-(4-cyclopropyl-5-(2-((2S,5S)-5-methyl-1-((S)-4,4,4-trifluoro-2-((methoxycarbonyl)amino)-3,3-dimethylbutanoyl)pyrrolidin-2-yl)-1,11-dihydroisochromeno[4′,3′:6,7]naphtho[1,2-d]imidazol-9-yl)-1H-imidazol-2-yl)-5-methylpyrrolidin-1-yl)-4,4,4-trilluoro-3,3-dimethyl-1-oxobutan-2-yl)carbamate], for which the EC50 amounted to 4.8 nM. “methyl ((S)-1-((2S,5S)-2-(5-(2-((2S,5S)-1-(O-(tert-butyl)-N-(methoxycarbonyl)-L-threonyl)-5-methylpyrrolidin-2-yl)-1,11-dihydroisochromeno[4′,3′:6,7]naphtho[1,2-d]imidazol-9-yl)-4-chloro-1H-imidazol-2-yl)-5-methylpyrrolidin-1-yl)-3-methyl-1-oxobutan-2-yl)carbamate [Compound 1]”: the 50% effective concentration (EC50) was 24.9 nM.

The same assay, now with this note: Zika virus, Huh-7; 48 hrs.
`COC[C@H]1C[C@@H](c2nc(Br)c(-c3ccc4c(c3)COc3cc5c(ccc6nc([C@@H]7CC[C@H](C)N7C(=O)[C@@H](NC(=O)OC)C(C)C)[nH]c65)cc3-4)[nH]2)N(C(=O)[C@@H](NC(=O)OC)C(C)C)C1` [Compound 8, methyl ((S)-1-((2S,5S)-2-(9-(4-bromo-2-((2S,4S)-1-((methoxycarbonyl)-L-valyl)-4-(methoxymethyl)pyrrolidin-2-yl)-1H-imidazol-5-yl)-1,11-dihydroisochromeno[4′,3′:6,7]naphtho[1,2-d]imidazol-2-yl)-5-methylpyrrolidin-1-yl)-3-methyl-1-oxobutan-2-yl)carbamate] showed an EC50 of 24.1 nM. Same read-out and setting: in the case of `COC(=O)N[C@H](C(=O)N1[C@@H](C)CC[C@H]1c1nc(C2CC2)c(-c2ccc3c(c2)COc2cc4c(ccc5nc([C@@H]6CC[C@H](C)N6C(=O)[C@@H](NC(=O)OC)C6C[C@@H](C)O[C@H](C)C6)[nH]c54)cc2-3)[nH]1)C1C[C@@H](C)O[C@H](C)C1` (stereo partly drawn) [Compound 11, methyl ((S)-2-((2S,5S)-2-(9-(4-cyclopropyl-2-((2S,5S)-1-((S)-2-((2R,6R)-2,6-dimethyltetrahydro-2H-pyran-4-yl)-2-((methoxycarbonyl)amino)acetyl)-5-methylpyrrolidin-2-yl)-1H-imidazol-5-yl)-1,11-dihydroisochromeno[4′,3′:6,7]naphtho[1,2-d]imidazol-2-yl)-5-methylpyrrolidin-1-yl)-1-((2R,6R)-2,6-dimethyltetrahydro-2H-pyran-4-yl)-2-oxoethyl)carbamate] it was 21.9 nM; in that of `CC[C@H](C)[C@H](NC(=O)OC)C(=O)N1[C@@H](C)CC[C@H]1c1nc(Cl)c(-c2ccc3c(c2)COc2cc4c(ccc5nc([C@@H]6CC[C@H](C)N6C(=O)[C@@H](NC(=O)OC)C6CCOCC6)[nH]c54)cc2-3)[nH]1` [Compound 15, methyl ((S)-2-((2S,5S)-2-(9-(4-chloro-2-((2S,5S)-1-((methoxycarbonyl)-L-isoleucyl)-5-methylpyrrolidin-2-yl)-1H-imidazol-5-yl)-1,11-dihydroisochromeno[4′,3′:6,7]naphtho[1,2-d]imidazol-2-yl)-5-methylpyrrolidin-1-yl)-2-oxo-1-(tetrahydro-2H-pyran-4-yl)ethyl)carbamate], 7.7 nM; in that of `COC[C@H]1C[C@@H](c2nc(C#N)c(-c3ccc4c(c3)COc3cc5c(ccc6nc([C@@H]7CC[C@H](C)N7C(=O)[C@@H](NC(=O)OC)C(C)C)[nH]c65)cc3-4)[nH]2)N(C(=O)[C@@H](NC(=O)OC)C(C)C)C1` [Compound 13, methyl ((S)-1-((2S,5S)-2-(9-(4-cyano-2-((2S,4S)-1-((methoxycarbonyl)-L-valyl)-4-(methoxymethyl)pyrrolidin-2-yl)-1H-imidazol-5-yl)-1,11-dihydroisochromeno[4′,3′:6,7]naphtho[1,2-d]imidazol-2-yl)-5-methylpyrrolidin-1-yl)-3-methyl-1-oxobutan-2-yl)carbamate], 51.6 nM. Same read-out and setting: to `CC[C@@H](C)[C@H](NC(=O)OC)C(=O)N1[C@@H](C)CC[C@H]1c1nc(C2CC2)c(-c2ccc3c(c2)COc2cc4c(ccc5nc([C@@H]6CC[C@H](C)N6C(=O)[C@@H](NC(=O)OC)[C@H](C)CC)[nH]c54)cc2-3)[nH]1` [Compound 40, methyl ((2S,3R)-1-((2S,5S)-2-(4-cyclopropyl-5-(2-((2S,5S)-1-((methoxycarbonyl)-L-alloisoleucyl)-5-methylpyrrolidin-2-yl)-1,11-dihydroisochromeno[4′,3′:6,7]naphtho[1,2-d]imidazol-9-yl)-1H-imidazol-2-yl)-5-methylpyrrolidin-1-yl)-3-methyl-1-oxopentan-2-yl)carbamate] belongs 25.1 nM. Take `CC[C@@H](C)[C@H](NC(=O)OC)C(=O)N1CCC[C@H]1c1nc(Cl)c(-c2ccc3c(c2)COc2cc4c(ccc5nc([C@@H]6CCCN6C(=O)[C@@H](NC(=O)OC)[C@H](C)CC)[nH]c54)cc2-3)[nH]1` [Compound 28, methyl ((2S,3R)-1-((S)-2-(4-chloro-5-(2-((S)-1-((methoxycarbonyl)-L-alloisoleucyl)pyrrolidin-2-yl)-1,11-dihydroisochromeno[4′,3′:6,7]naphtho[1,2-d]imidazol-9-yl)-1H-imidazol-2-yl)pyrrolidin-1-yl)-3-methyl-1-oxopentan-2-yl)carbamate]: a half-maximal response (EC50) required 31.5 nM. In turn, `CC[C@H](C)[C@H](NC(=O)OC)C(=O)N1[C@@H](C)CC[C@H]1c1nc(Cl)c(-c2ccc3c(c2)COc2cc4c(ccc5nc([C@@H]6CC[C@H](C)N6C(=O)[C@@H](NC(=O)OC)[C@@H](C)CC)[nH]c54)cc2-3)[nH]1` [Compound 22, methyl ((2S,3S)-1-((2S,5S)-2-(4-chloro-5-(2-((2S,5S)-1-((methoxycarbonyl)-L-isoleucyl)-5-methylpyrrolidin-2-yl)-1,11-dihydroisochromeno[4′,3′:6,7]naphtho[1,2-d]imidazol-9-yl)-1H-imidazol-2-yl)-5-methylpyrrolidin-1-yl)-3-methyl-1-oxopentan-2-yl)carbamate] registered a half-maximal effective concentration (EC50) of 10.8 nM.

Consider `COC(=O)N[C@H](C(=O)N1[C@@H](C)CC[C@H]1c1nc(Br)c(-c2ccc3c(c2)COc2cc4c(ccc5nc([C@@H]6CC[C@H](C)N6C(=O)[C@@H](NC(=O)OC)C(C)C)[nH]c54)cc2-3)[nH]1)C(C)C` [Compound 31, methyl ((S)-1-((2S,5S)-2-(4-bromo-5-(2-((2S,5S)-1-((methoxycarbonyl)-L-valyl)-5-methylpyrrolidin-2-yl)-1,11-dihydroisochromeno[4′,3′:6,7]naphtho[1,2-d]imidazol-9-yl)-1H-imidazol-2-yl)-5-methylpyrrolidin-1-yl)-3-methyl-1-oxobutan-2-yl)carbamate], for which the concentration for a half-maximal effect (EC50) came to 8.5 nM. Still for that read-out and setting: in the case of `COC(=O)N[C@H](C(=O)N1[C@@H](C)CC[C@H]1c1nc(Br)c(-c2ccc3c(c2)COc2cc4c(ccc5nc([C@@H]6CC[C@H](C)N6C(=O)[C@@H](NC(=O)OC)C6C[C@@H](C)O[C@H](C)C6)[nH]c54)cc2-3)[nH]1)C1CC(C)O[C@H](C)C1` (stereo in doubt) [Compound 10, methyl ((S)-2-((2S,5S)-2-(9-(4-bromo-2-((2S,5S)-1-((S)-2-((2R,6R)-2,6-dimethyltetrahydro-2H-pyran-4-yl)-2-((methoxycarbonyl)amino)acetyl)-5-methylpyrrolidin-2-yl)-1H-imidazol-5-yl)-1,11-dihydroisochromeno[4′,3′:6,7]naphtho[1,2-d]imidazol-2-yl)-5-methylpyrrolidin-1-yl)-1-((2R,6R)-2,6-dimethyltetrahydro-2H-pyran-4-yl)-2-oxoethyl)carbamate] it was 18.8 nM; in that of `CC[C@H](C)[C@H](NC(=O)OC)C(=O)N1[C@@H](C)CC[C@H]1c1nc(C2CC2)c(-c2ccc3c(c2)COc2cc4c(ccc5nc([C@@H]6CC[C@H](C)N6C(=O)[C@@H](NC(=O)OC)[C@@H](C)CC)[nH]c54)cc2-3)[nH]1` [Compound 39, methyl ((2S,3S)-1-((2S,5S)-2-(4-cyclopropyl-5-(2-((2S,5S)-1-((methoxycarbonyl)-L-isoleucyl)-5-methylpyrrolidin-2-yl)-1,11-dihydroisochromeno[4′,3′:6,7]naphtho[1,2-d]imidazol-9-yl)-1H-imidazol-2-yl)-5-methylpyrrolidin-1-yl)-3-methyl-1-oxopentan-2-yl)carbamate], 17.2 nM; in that of `COC(=O)N[C@H](C(=O)N1[C@@H](C)CC[C@H]1c1nc(Cl)c(-c2ccc3c(c2)COc2cc4c(ccc5nc([C@@H]6CC[C@H](C)N6C(=O)[C@@H](NC(=O)OC)C(C)C)[nH]c54)cc2-3)[nH]1)C(C)C` [Compound 21, methyl ((S)-1-((2S,5S)-2-(4-chloro-5-(2-((2S,5S)-1-((methoxycarbonyl)-L-valyl)-5-methylpyrrolidin-2-yl)-1,11-dihydroisochromeno[4′,3′:6,7]naphtho[1,2-d]imidazol-9-yl)-1H-imidazol-2-yl)-5-methylpyrrolidin-1-yl)-3-methyl-1-oxobutan-2-yl)carbamate], 18.9 nM. Same read-out and setting: in the case of `CC[C@H](C)[C@H](NC(=O)OC)C(=O)N1CCC[C@H]1c1nc(Cl)c(-c2ccc3c(c2)COc2cc4c(ccc5nc([C@@H]6CCCN6C(=O)[C@@H](NC(=O)OC)[C@@H](C)CC)[nH]c54)cc2-3)[nH]1` [Compound 27, methyl ((2S,3S)-1-((S)-2-(4-chloro-5-(2-((S)-1-((methoxycarbonyl)-L-isoleucyl)pyrrolidin-2-yl)-1,11-dihydroisochromeno[4′,3′:6,7]naphtho[1,2-d]imidazol-9-yl)-1H-imidazol-2-yl)pyrrolidin-1-yl)-3-methyl-1-oxopentan-2-yl)carbamate] it was 15.3 nM; in that of `COC(=O)N[C@H](C(=O)N1CC2(CC2)C[C@H]1c1nc(Cl)c(-c2ccc3c(c2)COc2cc4c(ccc5nc([C@@H]6CC7(CC7)CN6C(=O)[C@@H](NC(=O)OC)C(C)C)[nH]c54)cc2-3)[nH]1)C(C)C` [Compound 2, methyl ((S)-1-((S)-6-(4-chloro-5-(2-((S)-5-((methoxycarbonyl)-L-valyl)-5-azaspiro[2.4]heptan-6-yl)-1,11-dihydroisochromeno[4′,3′:6,7]naphtho[1,2-d]imidazol-9-yl)-1H-imidazol-2-yl)-5-azaspiro[2.4]heptan-5-yl)-3-methyl-1-oxobutan-2-yl)carbamate], 50.5 nM.
